The IC50 is the concentration at which inhibition is half-maximal. Read a low IC50 as inhibition by little substance.

Conditions in all cases: biochemical, HTRF KinEASE-TK
A general note: TR-FRET usually uses a lanthanide donor and a delayed reading to cut background.

In one test the target is c-Kit (Homo sapiens (Human), UniProt P10721). The experiment in a line: Inhibition of c-Kit kinase activity (HTRF KinEASE-TK). It counts as biochemical. On the procedure: (§1) Inhibition of c-Kit, PDGFRα, PDGFRβ, CSFIR and FLT3 Kinase Activity
Sequence of c-Kit (P10721 26-976): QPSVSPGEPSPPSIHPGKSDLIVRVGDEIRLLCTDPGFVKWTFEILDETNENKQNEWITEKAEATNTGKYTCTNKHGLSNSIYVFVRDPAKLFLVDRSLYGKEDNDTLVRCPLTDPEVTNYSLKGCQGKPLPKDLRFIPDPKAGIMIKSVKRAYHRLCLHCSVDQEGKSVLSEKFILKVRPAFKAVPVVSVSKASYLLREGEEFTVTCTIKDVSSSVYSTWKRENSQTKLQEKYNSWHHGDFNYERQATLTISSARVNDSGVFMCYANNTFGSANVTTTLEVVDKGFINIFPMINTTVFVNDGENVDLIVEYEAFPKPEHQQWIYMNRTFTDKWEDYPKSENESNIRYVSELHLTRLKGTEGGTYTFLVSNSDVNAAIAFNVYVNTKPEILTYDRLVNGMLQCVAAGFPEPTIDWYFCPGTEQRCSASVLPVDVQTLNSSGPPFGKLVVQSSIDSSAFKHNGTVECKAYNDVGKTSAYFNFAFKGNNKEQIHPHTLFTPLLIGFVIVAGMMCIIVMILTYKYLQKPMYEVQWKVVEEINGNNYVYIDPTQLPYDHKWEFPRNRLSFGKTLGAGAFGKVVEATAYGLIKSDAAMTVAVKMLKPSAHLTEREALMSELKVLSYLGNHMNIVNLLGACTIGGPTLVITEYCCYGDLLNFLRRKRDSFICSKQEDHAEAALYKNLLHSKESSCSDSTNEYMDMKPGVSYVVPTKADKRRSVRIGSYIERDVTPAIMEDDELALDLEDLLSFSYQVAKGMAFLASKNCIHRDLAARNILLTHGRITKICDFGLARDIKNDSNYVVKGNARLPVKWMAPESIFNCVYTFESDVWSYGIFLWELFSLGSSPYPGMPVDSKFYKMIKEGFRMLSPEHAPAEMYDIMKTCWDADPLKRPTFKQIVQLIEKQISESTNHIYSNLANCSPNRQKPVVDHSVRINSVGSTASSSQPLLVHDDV
(§2) Compounds were evaluated to determine the potency with which they inhibit the kinase activity of the following panel of tyrosine kinases: c-Kit (SignalChem, Product #: K06-11BG), PDGFRα (SignalChem, Product #: P12-18G), PDGFRβ (SignalChem, Product #: P13-11G), CSFIR (SignalChem, Product #: C74-11G) and FLT3 (Invitrogen, Product #: PR4666C). Activity was determined as a function of phosphorylated biotinylated TK peptide generated by the transfer of phosphate from ATP as measured by the use of the HTRF KinEASE-TK assay kit (Cisbio, Product #: 62TKOPEJ). Levels of phosphorylated biotinylated TK peptide (Part 61TKOBLC of KinEASE assay kit) are quantified by its capture by phosphor-TK-Antibody-Cryptate (Part of KinEASE assay kit) and XL665-labeled Streptavidin (Part 610SAXLG of KinEASE assay kit) followed by measurement of Time-Resolved Fluorescence Resonance Energy Transfer (TR-FRET) signal. On the day of the assay, compounds were solubilized in DMSO and dispensed into a 384-well white Opti-plate (PerkinElmer, catalog #6007290) to generate a 22 point 1:2 titration. Enzyme solution was prepared for each of the tyrosine kinases in 50 mM HEPES, pH 7.4, 5 mM MgCl2 for c-Kit or 10 mM MgCl2 for FLT3, CSFIR, PDGFRa and PDGFRβ, 2 mM MnCl2, 0.01% Brij-35 and 0.01% BSA. Working enzyme concentrations were prepared for c-Kit at 2 nM (2×), PDGFRa and PDGFRß at 10 nM (2×), CSFIR at 2 nM (2×) and FLT3 at 0.4 nM (2×). Five microliters of enzyme dilution of each tyrosine kinase were added to their respective 384-well white Opti-plate pre-dispensed with compound and allowed to incubate for 1 h at rt. Utilizing the same enzyme buffer recipe, 2x substrate mixes were prepared for each enzyme as follows: For c-Kit, 1.6 μM (2×) TK substrate and 16 μM (2×) ATP (Promega, catalog #V915). For PDGFRα, 3.2 μM TK substrate and 1 μM ATP. For PDGFRβ, 3.2 μM TK substrate and 40 μM ATP. For CSFIR, […] TK substrate and 20 μM ATP. For FLT3, 3.2 μM TK substrate and 100 μM ATP. Reactions were initiated by addition of 5 μL of the respective 2x substrate mix to each well of the plates containing the respective tyrosine kinase enzymes and were allowed to proceed for 120 minutes at rt, except for FLT3, the reaction time is 45 min. Following the reaction, 10 μL of detection mix consisting of 0.2 μM (2×) of Streptavidin-XL665 and 2 μM (2×) of TK-Antibody-Cryptate prepared in detection buffer (Part 62SDBRDF of KinEASE assay kit) was added and then allowed to incubate for 60 min. The TR-FRET signal was quantified by measuring the ratio of emission at 665 nm to 620 nm after excitation at 320 nm by reading on a PerkinElmer Envision multimode reader. Compound potencies (IC50 values) were determined using a standard 4-parameter non-linear regression fit.

In the next test the target is PDGFRα (Homo sapiens (Human), UniProt P16234). The experiment in a line: Inhibition of PDGFRα kinase activity (HTRF KinEASE-TK). As to the method: as §1, §2
Sequence of PDGFRα (P16234 24-1089): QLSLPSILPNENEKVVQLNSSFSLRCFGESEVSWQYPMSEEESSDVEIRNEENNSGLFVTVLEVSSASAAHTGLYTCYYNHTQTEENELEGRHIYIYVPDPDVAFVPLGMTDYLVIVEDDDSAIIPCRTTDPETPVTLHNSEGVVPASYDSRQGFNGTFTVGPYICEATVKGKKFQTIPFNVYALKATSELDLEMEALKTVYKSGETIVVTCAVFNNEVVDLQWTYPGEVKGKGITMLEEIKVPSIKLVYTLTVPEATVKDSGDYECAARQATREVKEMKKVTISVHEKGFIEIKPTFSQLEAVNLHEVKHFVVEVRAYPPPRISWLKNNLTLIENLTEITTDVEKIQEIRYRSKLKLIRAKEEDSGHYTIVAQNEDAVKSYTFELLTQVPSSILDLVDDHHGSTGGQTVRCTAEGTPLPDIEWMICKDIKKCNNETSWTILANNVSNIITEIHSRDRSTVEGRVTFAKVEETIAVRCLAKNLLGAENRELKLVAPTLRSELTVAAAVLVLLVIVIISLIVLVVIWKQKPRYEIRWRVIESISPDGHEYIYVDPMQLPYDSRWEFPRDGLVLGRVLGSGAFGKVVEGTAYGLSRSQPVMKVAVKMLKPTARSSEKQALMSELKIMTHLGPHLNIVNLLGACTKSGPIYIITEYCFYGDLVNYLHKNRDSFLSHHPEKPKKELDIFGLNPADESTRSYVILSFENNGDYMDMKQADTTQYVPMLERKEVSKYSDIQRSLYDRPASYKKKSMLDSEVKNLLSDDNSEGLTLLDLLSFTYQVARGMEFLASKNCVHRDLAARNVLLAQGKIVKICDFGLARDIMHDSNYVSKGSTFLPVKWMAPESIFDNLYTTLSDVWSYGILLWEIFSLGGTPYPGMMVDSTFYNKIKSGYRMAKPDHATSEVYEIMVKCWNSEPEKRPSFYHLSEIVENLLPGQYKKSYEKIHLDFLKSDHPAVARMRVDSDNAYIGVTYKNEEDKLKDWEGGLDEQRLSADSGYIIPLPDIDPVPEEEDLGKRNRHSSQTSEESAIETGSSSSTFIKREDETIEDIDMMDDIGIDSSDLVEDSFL
Another test addresses PDGFRβ (Homo sapiens (Human), UniProt P09619). The experiment in a line: Inhibition of PDGFRβ kinase activity (HTRF KinEASE-TK). On the procedure: as §1, §2
A further test addresses CSF1R (Homo sapiens (Human), UniProt P07333). The experiment in a line: Inhibition of CSF1R kinase activity (HTRF KinEASE-TK). As to the method:
as §1, §2

Sequence of PDGFRβ (P09619 33-1106): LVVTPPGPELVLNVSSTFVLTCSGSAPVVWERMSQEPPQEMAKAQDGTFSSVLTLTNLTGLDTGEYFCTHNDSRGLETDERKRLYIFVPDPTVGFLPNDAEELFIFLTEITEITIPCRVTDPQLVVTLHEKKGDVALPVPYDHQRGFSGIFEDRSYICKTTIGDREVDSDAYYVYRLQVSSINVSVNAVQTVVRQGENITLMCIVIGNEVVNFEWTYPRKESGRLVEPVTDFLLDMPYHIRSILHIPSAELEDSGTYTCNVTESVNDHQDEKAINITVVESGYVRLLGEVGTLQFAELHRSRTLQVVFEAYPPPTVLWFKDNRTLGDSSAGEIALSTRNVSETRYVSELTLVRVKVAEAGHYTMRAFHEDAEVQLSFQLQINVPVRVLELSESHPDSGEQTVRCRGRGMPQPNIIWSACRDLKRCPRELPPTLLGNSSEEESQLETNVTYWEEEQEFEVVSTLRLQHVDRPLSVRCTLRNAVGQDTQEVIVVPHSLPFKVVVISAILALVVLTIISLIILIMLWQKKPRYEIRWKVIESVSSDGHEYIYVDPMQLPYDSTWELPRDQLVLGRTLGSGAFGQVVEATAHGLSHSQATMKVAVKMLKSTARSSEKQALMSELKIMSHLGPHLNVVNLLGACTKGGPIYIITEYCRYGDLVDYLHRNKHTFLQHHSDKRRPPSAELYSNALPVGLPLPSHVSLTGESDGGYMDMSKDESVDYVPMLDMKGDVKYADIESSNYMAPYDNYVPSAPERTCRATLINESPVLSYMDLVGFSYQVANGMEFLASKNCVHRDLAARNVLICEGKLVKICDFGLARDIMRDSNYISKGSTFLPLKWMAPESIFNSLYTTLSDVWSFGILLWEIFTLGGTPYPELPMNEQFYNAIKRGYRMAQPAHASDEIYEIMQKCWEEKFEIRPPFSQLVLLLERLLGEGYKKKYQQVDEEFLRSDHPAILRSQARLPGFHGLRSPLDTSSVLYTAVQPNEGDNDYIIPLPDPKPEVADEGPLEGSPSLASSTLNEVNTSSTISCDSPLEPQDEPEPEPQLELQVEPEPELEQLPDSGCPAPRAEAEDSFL
Sequence of CSF1R (P07333 20-972): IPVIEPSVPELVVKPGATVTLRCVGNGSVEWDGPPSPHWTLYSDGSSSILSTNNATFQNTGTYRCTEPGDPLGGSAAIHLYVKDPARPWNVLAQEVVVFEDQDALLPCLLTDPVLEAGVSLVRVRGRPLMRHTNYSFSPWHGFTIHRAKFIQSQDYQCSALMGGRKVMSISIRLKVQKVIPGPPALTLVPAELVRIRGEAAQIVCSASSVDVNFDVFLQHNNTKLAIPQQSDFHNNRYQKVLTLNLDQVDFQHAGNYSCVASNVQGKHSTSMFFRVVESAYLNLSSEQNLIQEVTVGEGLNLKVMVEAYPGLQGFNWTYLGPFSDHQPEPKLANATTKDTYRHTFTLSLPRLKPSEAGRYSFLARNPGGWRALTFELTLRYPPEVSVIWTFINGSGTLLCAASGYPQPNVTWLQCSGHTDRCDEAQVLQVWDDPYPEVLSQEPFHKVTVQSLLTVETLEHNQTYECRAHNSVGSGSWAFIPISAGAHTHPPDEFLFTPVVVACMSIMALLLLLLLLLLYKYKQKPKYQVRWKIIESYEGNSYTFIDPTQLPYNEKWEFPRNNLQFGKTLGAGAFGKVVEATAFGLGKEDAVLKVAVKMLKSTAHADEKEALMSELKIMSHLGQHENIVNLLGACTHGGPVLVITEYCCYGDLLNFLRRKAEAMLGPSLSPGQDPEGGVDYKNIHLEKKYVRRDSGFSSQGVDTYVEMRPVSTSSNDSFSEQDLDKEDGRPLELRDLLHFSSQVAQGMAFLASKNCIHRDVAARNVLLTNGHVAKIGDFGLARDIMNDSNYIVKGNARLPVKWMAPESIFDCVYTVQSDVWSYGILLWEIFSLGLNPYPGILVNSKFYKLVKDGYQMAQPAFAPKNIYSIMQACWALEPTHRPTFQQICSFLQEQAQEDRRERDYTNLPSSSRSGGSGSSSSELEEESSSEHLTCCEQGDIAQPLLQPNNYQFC

With `Cc1cc(F)c(C(=O)Nc2ccc(OC3CC3)cn2)cc1NC(=O)c1cnc(NC(=O)[C@H]2CCOC2)s1` [Example 108, N-[5-[(5-cyclopropyloxypyridin-2-yl)carbamoyl]-4-fluoro-2-methylphenyl]-2-[[(3S)-oxolane-3-carbonyl]amino]-1,3-thiazole-5-carboxamide], the IC50 against c-Kit is less than 100 nM; on PDGFRα, greater than 1000 nM; against PDGFRβ, greater than 1000 nM; against CSF1R it was greater than 1000 nM.
With `Cc1cc(F)c(C(=O)Nc2ccc(OC3CC3)cn2)cc1NC(=O)c1cnc(NC(=O)C(C)(C)O)s1` [Example 109, N-[5-[(5-cyclopropyloxypyridin-2-yl)carbamoyl]-4-fluoro-2-methylphenyl]-2-[(2-hydroxy-2-methylpropanoyl)amino]-1,3-thiazole-5-carboxamide], the IC50 was 100 to 1000 nM at c-Kit, greater than 1000 nM on PDGFRα, greater than 1000 nM against PDGFRβ and greater than 1000 nM at CSF1R.
Take `Cc1cc(F)c(C(=O)Nc2ccc(C(C)(O)C(F)(F)F)cn2)cc1NC(=O)c1cnc(N)s1` (stereo not drawn) [Example 111, 2-Amino-N-[4-fluoro-2-methyl-5-[[5-(1,1,1-trifluoro-2-hydroxypropan-2-yl)pyridin-2-yl]carbamoyl]phenyl]-1,3-thiazole-5-carboxamide]: the IC50 against c-Kit, on PDGFRα, against PDGFRβ and at CSF1R was less than 100 nM throughout.
For `Cc1cc(F)c(C(=O)Nc2cc3c(cn2)COC3)cc1NC(=O)c1cnc(N)s1` [Example 112, 2-Amino-N-[5-(1,3-dihydrofuro [3,4-c]pyridin-6-ylcarbamoyl)-4-fluoro-2-methylphenyl]-1,3-thiazole-5-carboxamide], the IC50 against c-Kit is less than 100 nM; against PDGFRα it was greater than 1000 nM; against PDGFRβ, 100 to 1000 nM; against CSF1R, 100 to 1000 nM.
As to `Cc1cc(F)c(C(=O)Nc2ccc(C(C)(C)O)cn2)cc1NC(=O)c1cnc(N)s1` [Example 113, 2-Amino-N-[4-fluoro-5-[[5-(2-hydroxypropan-2-yl)pyridin-2-yl]carbamoyl]-2-methylphenyl]-1,3-thiazole-5-carboxamide], the IC50 is less than 100 nM against c-Kit, 100 to 1000 nM against PDGFRα, less than 100 nM on PDGFRβ and 100 to 1000 nM against CSF1R.
Turning to `Cc1cc(F)c(C(=O)Nc2ccc(S(C)(=O)=O)cn2)cc1NC(=O)c1cnc(N)s1` [Example 116, 2-Amino-N-[4-fluoro-2-methyl-5-[(5-methylsulfonylpyridin-2-yl)carbamoyl]phenyl]-1,3-thiazole-5-carboxamide], the IC50 against c-Kit is less than 100 nM; at PDGFRα, greater than 1000 nM; on PDGFRβ it was 100 to 1000 nM; against CSF1R it was 100 to 1000 nM.
For the molecule `Cc1cc(F)c(C(=O)Nc2ccc(C3(C#N)CC3)nn2)cc1NC(=O)c1cnc(N)s1` [Example 119, 2-Amino-N-[5-[[6-(1-cyanocyclopropyl)pyridazin-3-yl]carbamoyl]-4-fluoro-2-methylphenyl]-1,3-thiazole-5-carboxamide], the IC50 against c-Kit was less than 100 nM; on PDGFRα, greater than 1000 nM; against PDGFRβ it was 100 to 1000 nM; at CSF1R, 100 to 1000 nM.
As for `Cc1cc(F)c(C(=O)NC2CN(C(=O)C3CC3)C2)cc1NC(=O)c1cnc(N)s1` [Example 121, 2-Amino-N-[5-[[1-(cyclopropanecarbonyl)azetidin-3-yl]carbamoyl]-4-fluoro-2-methylphenyl]-1,3-thiazole-5-carboxamide], the IC50 against c-Kit was less than 100 nM; at PDGFRα, greater than 1000 nM; on PDGFRβ, greater than 1000 nM; at CSF1R, greater than 1000 nM.
`Cc1cc(F)c(C(=O)NC2CN(c3ncccn3)C2)cc1NC(=O)c1cnc(N)s1` [Example 125, 2-Amino-N-[4-fluoro-2-methyl-5-[(1-pyrimidin-2-ylazetidin-3-yl)carbamoyl]phenyl]-1,3-thiazole-5-carboxamide]: the IC50 against c-Kit is less than 100 nM; on PDGFRα it was greater than 1000 nM; at PDGFRβ, greater than 1000 nM; on CSF1R, greater than 1000 nM.

The values are drawn from patent US20250145606A1 (Arcus Biosciences, Inc., priority 2023, published 2025).
